Measured values as given in US20130225611A1, “Compositions and Methods for Reducing Cancer Cell Proliferation and Modulating Importin-Beta Function” (THE REGENTS OF THE UNIVERSITY OF CALIFORNIA, priority 2011, published 2013).

Tests used:
[1] = test system: CRM1-mediated export of NFAT-GFP; test: NFAT-GFP nuclear export after ionomycin washout in HEK 293 cells; format: cell-based, human; settings: HEK 293, importazole 40 μM, leptomycin B 10 ng/ml, 1 hour after ionomycin washout
Experimental: For all import and export experiments, HEK 293 cells stably expressing NFAT-GFP were grown on glass coverslips to approximately 50% confluency prior to drug treatment. In all cases, importazole was used at 40 μM and leptomycin B was used at 10 ng/ml. For controls, DMSO was used at a concentration of 0.4%. Ionomycin was added at 1.25 μM. Importazole and leptomycin B treatments were all for 1 hour. In all experiments cells were fixed with 4% formaldehyde prior to fluorescence microscopy. DNA was visualized with 1 μg/ml Hoechst dye.

[2] = test system: spindle assembly around sperm chromosomes; test: spindle assembly in metaphase-arrested Xenopus egg extracts; set-up: species or system Xenopus laevis; settings: 100 μM importazole
Excerpt: In order to determine whether importazole also disrupts mitosis, importazole was first tested in metaphase-arrested Xenopus egg extracts, which rely heavily on a RanGTP gradient for spindle assembly around sperm chromosomes. […] The effect was similar to that of adding a truncated importin-β (amino acids 71-876), a version that no longer binds to RanGTP and therefore sequesters its cargoes. […] Thus, importazole caused dramatic effects on spindle assembly consistent with the known role of the importin-β/RanGTP pathway in the Xenopus egg extract system, and is not a general microtubule inhibitor.
Xenopus laevis egg extracts were prepared as described by Hannak et al. (2006) Nat. Protoc. 1:2305-2314. For in vitro spindle assembly, Xenopus laevis sperm DNA was added to egg extracts supplemented with rhodamine-labeled tubulin. Asters were formed by addition of 5% DMSO. DNA was stained with Hoechst dye. The formation of microtubule-based structures was assessed using epifluorescence microscopy after a 30-minute room temperature incubation. In vitro microtubule polymerization and pelleting assays were performed by incubating 25 μM bovine tubulin, 1 mM GTP, and 5% DMSO in BRB80 buffer (80 mM PIPES, 1 mM MgCl2, 1 mM EGTA, pH 6.8) at 37° C. for 30 minutes. Polymerized microtubules were pelleted through a sucrose cushion, resuspended, and analyzed by SDS PAGE.

| Compound | CRM1-mediated export of NFAT-GFP [1] | sperm nuclei at which normal bipolar microtubule structures were prevented from forming [2] |
| --- | --- | --- |
| CCC(=C/[C@H](C)C/C=C/C(C)=C/[C@@H](C)C(=O)[C@@H](C)[C@H](O)[C@@H](C)C/C(C)=C/C(=O)O)/C=C/[C@@H]1OC(=O)C=C[C@@H]1C [leptomycin B, reference compound] | blocked | – |
| truncated importin-β (amino acids 71-876): truncated importin-β that no longer binds to RanGTP and therefore sequesters its cargoes | – | similar |
